According to ChEMBL document CHEMBL1201862, “PubChem BioAssay data set” (2004):
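Interpolation was linear, between the two tested concentrations surrounding the appropriate level; five concentrations were tested over 48 hours in 96-well plates. Abbreviation: GI50, concentration required for 50% inhibition of growth.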 Active and inactive are the calls of the source. No stated cut-off is given here; in the data, active = GI50 up to about 1.1 µM and inactive = higher.

Experiments:
Assay in all cases: inhibition of tumour cell growth, NCI panel, 48 h
ACHN = system: ACHN
CCRF-CEM = system: CCRF-CEM
DU-145 = system: DU-145
EKVX = system: EKVX
HCC 2998 = system: HCC 2998
HCT-15 = system: HCT-15
HT-29 = system: HT-29
M14 = system: M14
MDA-MB-231 = system: MDA-MB-231
Malme-3M = system: Malme-3M
NCI-H522 = system: NCI-H522
OVCAR-3 = system: OVCAR-3
PC-3 = system: PC-3
RXF 393 = system: RXF 393
SF-295 = system: SF-295
SF-539 = system: SF-539
TK-10 = system: TK-10
SK-MEL-5 = system: SK-MEL-5

## O=C1c2ccccc2/N=C(/c2cc3c(cc2Cl)Sc2nccn2S3(=O)=O)OS(=O)(=O)N1c1ccccc1
ACHN
  GI50: 25.8 µM (inactive)
CCRF-CEM
  GI50: 4.65 µM (inactive)
DU-145
  GI50: 37.4 µM (inactive)
EKVX
  GI50: 30 µM (inactive)
HCC 2998
  GI50: 8.36 µM (inactive)
HCT-15
  GI50: 20.2 µM
HT-29
  GI50: 23.3 µM (inactive)
M14
  GI50: 16.9 µM (inactive)
MDA-MB-231
  GI50: 22.7 µM (inactive)
Malme-3M
  GI50: 73.8 µM (inactive)
NCI-H522
  GI50: 5.31 µM (inactive)
OVCAR-3
  GI50: 37 µM (inactive)
PC-3
  GI50: 44.4 µM (inactive)
RXF 393
  GI50: 20.8 µM (inactive)
SF-295
  GI50: 16.9 µM (inactive)
SF-539
  GI50: 36.7 µM (inactive)
TK-10
  GI50: 24.4 µM (inactive)

## CC(C)(C)OC(=O)N1N=CCC1c1ccccc1 (stereo unspecified)
ACHN
  GI50: > 100 µM (inactive)
CCRF-CEM
  GI50: 56.2 µM (inactive)
DU-145
  GI50: > 100 µM (inactive)
EKVX
  GI50: > 100 µM (inactive)
HCC 2998
  GI50: > 100 µM (inactive)
HCT-15
  GI50: > 100 µM
HT-29
  GI50: > 100 µM (inactive)
M14
  GI50: > 100 µM (inactive)
NCI-H522
  GI50: > 100 µM (inactive)
OVCAR-3
  GI50: > 100 µM (inactive)
RXF 393
  GI50: > 100 µM (inactive)
SF-295
  GI50: > 100 µM (inactive)
SF-539
  GI50: > 100 µM (inactive)
SK-MEL-5
  GI50: > 100 µM (inactive)
TK-10
  GI50: > 100 µM (inactive)

## COc1ccc(C(=O)Nc2ccc(O)c(=O)cc2)cc1
ACHN
  GI50: 23.7 µM (inactive)
CCRF-CEM
  GI50: 24 µM (inactive)
DU-145
  GI50: 25.6 µM (inactive)
EKVX
  GI50: 21.4 µM (inactive)
HCC 2998
  GI50: 39.9 µM (inactive)
HCT-15
  GI50: 26.9 µM
HT-29
  GI50: 20.8 µM (inactive)
M14
  GI50: 78 µM (inactive)
MDA-MB-231
  GI50: 42.3 µM (inactive)
Malme-3M
  GI50: 43.9 µM (inactive)
NCI-H522
  GI50: 25.8 µM (inactive)
OVCAR-3
  GI50: 27.6 µM (inactive)
PC-3
  GI50: 40 µM (inactive)
RXF 393
  GI50: 13.6 µM (inactive)
SF-295
  GI50: 37.8 µM (inactive)
SF-539
  GI50: 33.2 µM (inactive)
SK-MEL-5
  GI50: 41.6 µM (inactive)
TK-10
  GI50: 53 µM (inactive)

## C=CCCC(=O)N1CCC(C(=O)OCC)C1=O (stereo unspecified)
ACHN
  GI50: > 100 µM (inactive)
CCRF-CEM
  GI50: > 100 µM (inactive)
DU-145
  GI50: > 100 µM (inactive)
EKVX
  GI50: > 100 µM (inactive)
HCT-15
  GI50: > 100 µM
M14
  GI50: > 100 µM (inactive)
MDA-MB-231
  GI50: > 100 µM (inactive)
Malme-3M
  GI50: > 100 µM (inactive)
NCI-H522
  GI50: > 100 µM (inactive)
PC-3
  GI50: > 100 µM (inactive)
RXF 393
  GI50: > 100 µM (inactive)
SF-295
  GI50: > 100 µM (inactive)
SF-539
  GI50: > 100 µM (inactive)
SK-MEL-5
  GI50: > 100 µM (inactive)
TK-10
  GI50: > 100 µM (inactive)

## Cc1nc2ccccc2c(=O)n1NC(=S)Nc1ccccc1
ACHN
  GI50: > 100 µM (inactive)
CCRF-CEM
  GI50: > 100 µM (inactive)
HCT-15
  GI50: > 100 µM
HT-29
  GI50: > 100 µM (inactive)
M14
  GI50: > 100 µM (inactive)
Malme-3M
  GI50: > 100 µM (inactive)
NCI-H522
  GI50: > 100 µM (inactive)
RXF 393
  GI50: 75.7 µM (inactive)
SF-295
  GI50: > 100 µM (inactive)
SF-539
  GI50: > 100 µM (inactive)
SK-MEL-5
  GI50: > 100 µM (inactive)
TK-10
  GI50: > 100 µM (inactive)

## Cn1c2ccccc2n2c3ccccc3c3nnc(N)c-3c12
ACHN
  GI50: 91.2 µM (inactive)
CCRF-CEM
  GI50: 37.3 µM (inactive)
DU-145
  GI50: 33.7 µM (inactive)
EKVX
  GI50: > 100 µM (inactive)
HCC 2998
  GI50: 41.2 µM (inactive)
HCT-15
  GI50: > 100 µM
HT-29
  GI50: > 100 µM (inactive)
M14
  GI50: > 95.3 µM (inactive)
MDA-MB-231
  GI50: 55 µM (inactive)
Malme-3M
  GI50: 10.5 µM (inactive)
NCI-H522
  GI50: 8.53 µM (inactive)
OVCAR-3
  GI50: 28.2 µM (inactive)
PC-3
  GI50: 68.2 µM (inactive)
RXF 393
  GI50: 22.7 µM (inactive)
SF-295
  GI50: 5.58 µM (inactive)
SK-MEL-5
  GI50: 28.9 µM (inactive)
TK-10
  GI50: > 100 µM (inactive)

## CCc1cc(CCC(=O)Nc2ccccc2[N+](=O)[O-])nc(S)n1
ACHN
  GI50: > 100 µM (inactive)
CCRF-CEM
  GI50: > 100 µM (inactive)
EKVX
  GI50: > 100 µM (inactive)
HCT-15
  GI50: > 100 µM
HT-29
  GI50: > 100 µM (inactive)
M14
  GI50: > 100 µM (inactive)
OVCAR-3
  GI50: > 100 µM (inactive)
RXF 393
  GI50: > 100 µM (inactive)
SF-295
  GI50: > 100 µM (inactive)
SF-539
  GI50: > 100 µM (inactive)
TK-10
  GI50: > 100 µM (inactive)

## CC(C)(C)[C@@H]1NC(=O)CN1C(=O)OCc1ccccc1
ACHN
  GI50: > 100 µM (inactive)
CCRF-CEM
  GI50: > 100 µM (inactive)
DU-145
  GI50: > 100 µM (inactive)
EKVX
  GI50: > 100 µM (inactive)
HCC 2998
  GI50: > 100 µM (inactive)
HCT-15
  GI50: > 100 µM
HT-29
  GI50: > 100 µM (inactive)
M14
  GI50: > 100 µM (inactive)
MDA-MB-231
  GI50: > 100 µM (inactive)
Malme-3M
  GI50: > 100 µM (inactive)
NCI-H522
  GI50: > 100 µM (inactive)
PC-3
  GI50: > 100 µM (inactive)
RXF 393
  GI50: > 100 µM (inactive)
SF-295
  GI50: > 100 µM (inactive)
SF-539
  GI50: > 100 µM (inactive)
SK-MEL-5
  GI50: > 100 µM (inactive)
TK-10
  GI50: > 100 µM (inactive)

## CCCCCCC(C)OC(=O)/C=C(\CC(=O)OC(C)CCCCCC)C(=O)OC(C)CCCCCC (stereo unspecified)
ACHN
  GI50: > 100 µM (inactive)
EKVX
  GI50: > 100 µM (inactive)
HCC 2998
  GI50: > 100 µM (inactive)
HCT-15
  GI50: > 100 µM
HT-29
  GI50: > 100 µM (inactive)
M14
  GI50: > 100 µM (inactive)
Malme-3M
  GI50: > 100 µM (inactive)
NCI-H522
  GI50: > 100 µM (inactive)
OVCAR-3
  GI50: > 100 µM (inactive)
RXF 393
  GI50: > 100 µM (inactive)
SF-295
  GI50: > 100 µM (inactive)
SF-539
  GI50: > 100 µM (inactive)
SK-MEL-5
  GI50: > 100 µM (inactive)
TK-10
  GI50: > 100 µM (inactive)
